# Source: US20110104074A1, “METHODS FOR TARGETED CANCER TREATMENT AND DETECTION” (UNIVERSITY OF LOUISVILLE RESEARCH FOUNDATION, INC., priority 2008, published 2011)
# Ends that are not written are not given here.
# Assays:
# [1] = test system: A2780 ovarian tumor cells; assay: Uptake of doxorubicin by ovarian tumor cells in vitro (fluorometric); type: cell-based; conditions: 5 nM DOX
# Protocol: To determine the uptake of doxorubicin by ovarian tumor cells in vitro, ovarian tumor cells (A2780) were plated in 6-well plates. After 24 hrs of incubation, the medium was replaced with fresh medium and cells were then treated with PBS, free DOX (DOX concentration=5 nM), DOX-NPs (5 nM DOX), or LHRH-NP-DOXs (5 nM DOX). After 2, 4, and 24 hrs of incubation, cells were rinsed with PBS and scrapped off the plates and centrifuged. The pellets were resuspended in lysis buffer [[…] sucrose, 5 mM TrisHCl, 1 mM MgSO4, 1 mM CaCl2 (pH 7.6)] and homogenized using a polytron homogenizer. A 200:1 dilution of the homogenate from each sample was then transferred in triplicate to 2 ml centrifuge tubes and 100:1 of 10% (v/v) Triton X-100, 200:1 of water, and 1,500:1 of acidified isopropanol (0.75 N HCl) was added. The tubes were vortexed to ensure complete mixing and doxorubicin was extracted overnight at −20° C. The next day, the samples were thawed to room temperature, and then centrifuged at 15,000×g for 20 min. The supernatant was collected. Doxorubicin was measured fluorometrically (EX485 nm/EM590 nm) as described previously (3).
# [2] = test system: ovarian epithelial tumor cells lines (A2780, CAOV3, and UCI), and a cisplatin-resistant cell line (A2780/CP70); assay: Cell viability (MTT, 96-titer kit) in ovarian tumor cell lines; conditions: concentrations from 1 to 5 nM; cisplatin-sensitive and cisplatin-resistant cell lines
# LHRH receptor = target: T1, LHRH receptor (Mus musculus, UniProt Q01776); assay: pCRE-luciferase reporter assay in LβT2 cells for binding to cell surface LHRH receptors; type: cell-based; conditions: 6 hrs treatment, read-out: binding affinities (IC50 values)
# T1 construct: endogenous in cells; host or cells: LβT2 mouse gonadotrope tumor cell line
# T1 sequence (Q01776 1-327): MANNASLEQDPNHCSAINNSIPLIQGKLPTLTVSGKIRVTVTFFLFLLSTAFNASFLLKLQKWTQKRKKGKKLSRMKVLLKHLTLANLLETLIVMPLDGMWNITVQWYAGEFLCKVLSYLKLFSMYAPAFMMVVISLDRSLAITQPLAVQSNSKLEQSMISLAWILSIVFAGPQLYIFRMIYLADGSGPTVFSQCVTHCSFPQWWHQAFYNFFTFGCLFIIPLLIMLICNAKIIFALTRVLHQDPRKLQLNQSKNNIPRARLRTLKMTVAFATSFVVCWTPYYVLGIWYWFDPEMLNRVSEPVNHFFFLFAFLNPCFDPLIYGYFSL
# Protocol: To determine if LHRH, when conjugated to gold particles or FNPs, retained its binding affinity to the luteinizing hormone-releasing hormone receptor and its biological activity, the binding of LHRH, LHRH-NP-DOXs, and LHRH-FNP-DOXs to cell surface LHRH receptors was first examined For this purpose, a mouse gonadotrope tumor cell line (LβT2) was used that expresses high levels of high affinity LHRH receptors (82). The LβT2 cells were plated on 6-well plates. After 24 hrs, the cells were transfected with a reporter gene construct, pCRE-luciferase plasmid, as described previously (82). After 24 hrs of transfection, the medium was replaced with serum free medium, followed by incubation for 4 hrs, and then treatment of the cells with various concentrations of LHRH or LHRH-NP-DOXs for 6 hrs. Cells were then lysed and assayed for luciferase activity using a luciferase assay kit (Promega, Madison, Wis.). Binding of LHRH or LHRH-NP-DOX particles was calculated and compared as described previously (82). Experiments were repeated three times for every new preparation.
Compound,doxorubicin found in cells compared to LHRH-NP-DOXs ([1]; after 24 hrs),doxorubicin found in cells ([1]; within 4 hrs),efficacy on cell death [2],IC50 (LHRH receptor) [pM]
"COc1cccc2c1C(=O)c1c(O)c3c(c(O)c1C2=O)C[C@@](O)(C(=O)CO)C[C@@H]3O[C@H]1C[C@H](N)[C@H](O)[C@H](C)O1 [DOX, doxorubicin, reference compound]",significantly lower,no detectable amount,ineffective,–
"CC(C)C[C@H](NC(=O)[C@@H](Cc1c[nH]c2ccccc12)NC(=O)[C@H](Cc1ccc(O)cc1)NC(=O)[C@H](CO)NC(=O)[C@H](Cc1c[nH]c2ccccc12)NC(=O)[C@H](Cc1c[nH]cn1)NC(=O)[C@@H]1CCC(=O)N1)C(=O)N[C@@H](CCCNC(=N)N)C(=O)N1CCC[C@H]1C(=O)NCC(N)=O [LHRH, p-Glu-His-Trp-Ser-Tyr-D-Trp-Leu-Arg-Gly-NH2, reference compound]",–,–,ineffective,100
"LHRH-DOX (QHWSYGLRPG; also: doxorubicin conjugate; UniProt P01148 24-33, looked up)",–,–,ineffective,–
